# Test results published in US11225657B2, “Synthetic auxotrophs with ligand dependent essential genes for biosafety” (priority 2015, dated 2022).
# Key:
# Type in all cases: cell-based, E. coli
# metG.GL15 = assay: Chemical complementation of growth of ligand-dependent strain metG.GL15; conditions: panel of 30 additional ligands
# Procedure: (§1) A second positive selection at block 140 was performed in order to enrich for desirable ligand-dependent strains. Library members surviving the negative selection were collected, residual penicillin was washed away, and cells were spread onto LB agar plates containing complementing chemicals. Resulting colonies were screened at block 150 for ligand-dependent growth by replica-spotting onto LB agar plates with and without complementing chemicals. Strains that grew only in the presence of chemicals were chosen for further characterization.
# (§2) In this example, the ligand-dependent strains were generated for 5 essential genes (pheS, dnaN, tyrS, metG, and adk). Each ligand-dependent strain carried between 3 and 7 mutations at the targeted essential gene (Table 1). A mixture of 4 small molecules was used to generate the ligand-dependent strains. Each resulting strain was tested against each small molecule individually. The most promiscuous strain, metG.GL15, was complemented by all 4 ligands. Other mutants responded to 2 or 3 ligands. Additionally, escape frequency was measured on media lacking any of the 4 ligands. The highest escape frequency was 8×10^−4 for adk.GL1, while the lowest escape frequency was 3×10^−9 for pheS.GL2.
# To characterize the specificity of the produced ligand-dependent strains towards ligands, all strains were examined for complementation by a panel of 30 additional ligands. […]
# tyrS.GL7 = assay: Chemical complementation of growth of ligand-dependent strain tyrS.GL7
# Procedure: as §1, §2
# The ligand-dependent strain tyrS.GL7 and metG.GL15 were generated in under 2 weeks with a single cycle of protein engineering. […]
# [1] = test system: rapamycin-dependent mutant (uniRapR insertion in dnaN); assay: Ligand-dependent growth of rapamycin-dependent dnaN-uniRapR insertion mutant at 42° C.; conditions: for nonspecific chemical complementation (growth): plates with ligand instead of rapamycin
# Source text: Starting with a plasmid borne copy of wild type dnaN under constitutive expression, the uniRapR domain was inserted into 4 candidate insertion sites with a 3 amino acid linker library upstream and downstream of the uniRapR domain. The resulting libraries (all four insertion sites with their linker libraries) were pooled and transformed into a strain of E. coli with a mutation on the genomic copy of dnaN that made the protein temperature sensitive (dnaN protein from genome is non-functional at 42° C. and it is bactericidal lethal).
# The transformants were grown at 42° C. (lethal temperature for genomic copy so as to force bacteria to rely on the plasmid copies with the uniRapR insertions) as well as with the addition of 10 uM rapamycin (to complement the function of any rapamycin-dependent insertional fusion dnaN mutants) and allowed to grow overnight.
# The extracted plasmid DNA was re-transformed into fresh dnaN-temperature sensitive strains and grown on LB agar supplemented with rapamycin at 42° C. The next day colonies were picked and re-spotted onto LB agar plates with or without rapamycin and grown at 42° C. […] The biological replicates of a 10-fold serial dilution of the rapamycin-dependent mutant grown without rapamycin (clear columns) or with 2.5 micromolar rapamycin (columns with growth) were prepared. All growth took place at 42° C.
# [2] = test system: dnaN-intein-iFKBP fusion mutants; assay: Growth of dnaN-intein-iFKBP mutants with complementing ligands at 42° C.; conditions: LB agar
# Procedure: A variety of saturation mutagenesis libraries targeting a combination of surface exposed and semi-buried residues on the intein structure were then designed, ignoring the iFKBP domain as well as the dnaN sequence. The resulting plasmid library was then transformed into dnaN-temperature sensitive strains (dnaN-temp sensitive on the genome). The resulting transformants were grown on LB agar plates containing 5 chemicals: rapamycin, saccharin, acetaminophen, raspberry ketone, and benzothiazole. These chemicals were chosen based on being either useful commercially or likely to result in the desired phenotype. As before the library was grown at 42° C. so that the strains would have to rely on the plasmid borne mutagenized copies of the dnaN-intein-iFKBP fusion proteins.
# The next day the libraries were scraped, and transferred to fresh media for a penicillin technique counter selection performed exactly as described before with FIG. 2 and FIG. 3. After the negative selection, intact cells were mini-prepped and the DNA was re-transformed into fresh cells and the transformants were grown on the same chemicals as indicated above at 42° C.
# The next day, colonies were picked, serially diluted tenfold and spotted onto plain LB agar plates and LB agar plates containing a pool of candidate complementing ligands and grown at 42° C. (to uncover phenotype of plasmid born copy of dnaN). […]
# pheS.GL2 = assay: Chemical complementation of growth of ligand-dependent strain pheS.GL2; conditions: LB agar plates
# Procedure: as §1, §2
# The ligand-dependent strain pheS.GL2 was derived from a directed evolution procedure using both targeted and random mutagenesis. […]
smiles,measurement,setting,value
O=C(O)Cc1c[nH]c2ccccc12 [Indole-3-acetic acid],complementation of growth,metG.GL15,complement
COC(=O)[C@@H](N)Cc1c[nH]cn1 [L-histidine methyl ester],complementation of growth,metG.GL15,complement
c1ccc2scnc2c1 [benzothiazole],concentration range of dose-dependent growth,tyrS.GL7,250 to 1000 µM
same,nonspecific chemical complementation (growth),[1],no growth was detected
same,colony size relative to no ligand (by eye),[2],2-5 times
same,complementation of growth,pheS.GL2; 1 mM benzothiazole,strongly complemented
c1ccc2[nH]ccc2c1 [indole],complementation of growth,tyrS.GL7,complemented
same,nonspecific chemical complementation (growth),[1],no growth was detected
same,complementation of growth,pheS.GL2; 0.5 mM indole,strongly complemented
CO[C@H]1C[C@@H]2CC[C@@H](C)[C@@](O)(O2)C(=O)C(=O)N2CCCC[C@H]2C(=O)O[C@H]([C@H](C)C[C@@H]2CC[C@@H](O)[C@H](OC)C2)CC(=O)[C@H](C)/C=C(\C)[C@@H](O)[C@@H](OC)C(=O)[C@H](C)C[C@H](C)/C=C/C=C/C=C/1C [rapamycin],rapamycin concentration of highest activity (dose-dependent growth),[1]; 42° C.,1 to 10 µM
